Laboratory results as given in US12655116B2, “Substituted isophthalic acid diamides” (Bayer Aktiengesellschaft, priority 2020, dated 2026).

Tests used:
DIGSA [1] = experiment: Pre-emergence herbicidal action against DIGSA; assay type: in vivo, Digitaria sanguinalis
Source text: (§1) Seeds of monocotyledonous and dicotyledonous weed plants and crop plants are laid out in sandy loam soil in wood-fiber pots and covered with soil. The compounds of the invention, formulated in the form of wettable powders (WP) or as emulsion concentrates (EC), are then applied to the surface of the covering soil in the form of an aqueous suspension or emulsion at a water application rate equivalent to 600 to 800 l/ha, with addition of 0.2% wetting agent. After the treatment, the pots are placed in a greenhouse and kept under good growth conditions for the trial plants. The damage to the test plants is scored visually after a test period of 3 weeks by comparison with untreated controls (herbicidal activity in percent (%): 100% activity=the plants have died, 0% activity=like control plants). […] The tables below illustrate, in an illustrative manner, the post-emergence herbicidal action of the compounds of the invention, the herbicidal activity being stated in percent.

ECHCG [2] = experiment: Pre-emergence herbicidal action against ECHCG; assay type: in vivo, Echinochloa crus-galli; details: 80 g/ha
Source text: as §1

DIGSA [3] = experiment: Post-emergence herbicidal action against DIGSA; assay type: in vivo, Digitaria sanguinalis; details: for Post-emergence action against DIGSA in %: 5 g/ha; for Post-emergence action against DIGSA: 20 g/ha
Method: (§2) Seeds of monocotyledonous and dicotyledonous weed and crop plants are laid out in sandy loam soil in wood-fiber pots, covered with soil and cultivated in a greenhouse under good growth conditions. 2 to 3 weeks after sowing, the test plants are treated at the one-leaf stage. The compounds of the invention, formulated in the form of wettable powders (WP) or as emulsion concentrates (EC), are then sprayed onto the green parts of the plants in the form of an aqueous suspension or emulsion at a water application rate equivalent to 600 to 800 l/ha, with addition of 0.2% wetting agent. After the test plants have been left to stand in the greenhouse under optimal growth conditions for about 3 weeks, the action of the preparations is assessed visually in comparison to untreated controls (herbicidal action in percent (%): 100% activity=the plants have died, 0% activity=like control plants). […] The tables below illustrate, in an illustrative manner, the post-emergence herbicidal action of the compounds of the invention, the herbicidal activity being stated in percent.

ECHCG [4] = experiment: Post-emergence herbicidal action against ECHCG; assay type: in vivo, Echinochloa crus-galli; details: dosage 20 g/ha
Method: as §2

VIOTR [5] = experiment: Pre-emergence herbicidal action against VIOTR; assay type: in vivo, Viola tricolor; details: dosage 80 g/ha
Source text: as §1

SETVI [6] = experiment: Pre-emergence herbicidal action against SETVI; assay type: in vivo, Setaria viridis; details: dosage 80 g/ha
Source text: as §1

AMARE [7] = experiment: Post-emergence herbicidal action against AMARE; assay type: in vivo, Amaranthus retroflexus; details: 20 g/ha, visual assessment about 3 weeks after treatment, 100% = plants have died, 0% = like control plants
Method: as §2

SETVI [8] = experiment: Post-emergence herbicidal action against SETVI; assay type: in vivo, Setaria viridis
Method: as §2

ABUTH [9] = experiment: Pre-emergence herbicidal action against ABUTH; assay type: in vivo, Abutilon theophrasti; details: 80 g/ha, scored visually after 3 weeks vs untreated controls (100% = plants have died, 0% = like control plants)
Source text: as §1

ABUTH [10] = experiment: Post-emergence herbicidal action against ABUTH; assay type: in vivo, Abutilon theophrasti; details: visual assessment about 3 weeks after treatment vs untreated controls
Method: as §2

MATIN = experiment: Pre-emergence herbicidal action against MATIN; assay type: in vivo, Matricaria inodora
Source text: as §1

AMARE [11] = experiment: Pre-emergence herbicidal action against AMARE; assay type: in vivo, Amaranthus retroflexus
Source text: as §1

VIOTR [12] = experiment: Post-emergence herbicidal action against VIOTR; assay type: in vivo, Viola tricolor; details: 20 g/ha
Method: as §2

[13] = 20 g/ha, scored visually after 3 weeks vs untreated controls, 100% = plants have died, 0% = like control plants
[14] = 80 g/ha, scored visually after 3 weeks vs untreated controls (100% = plants have died, 0% = like control plants)

| SMILES | Pre-emergence action against DIGSA in % (DIGSA [1]; dosage 20 g/ha) [%] | Pre-emergence action against DIGSA in % (DIGSA [1]; dosage 80 g/ha) [%] | Pre-emergence action against ECHCG in % (ECHCG [2]) [%] | Post-emergence action against DIGSA in % (DIGSA [3]) [%] | Post-emergence action against DIGSA (DIGSA [3]) [%] | Post-emergence action against ECHCG in % (ECHCG [4]) [%] | Pre-emergence action against VIOTR in % (VIOTR [5]) [%] | Pre-emergence action against SETVI in % (SETVI [6]) [%] | Post-emergence action at 20 g/ha against AMARE in % (AMARE [7]) [%] | Post-emergence action against SETVI in % (SETVI [8]; dosage 20 g/ha) [%] | Pre-emergence action against ABUTH (herbicidal activity) (ABUTH [9]) [%] | Post-emergence action against ABUTH in % (ABUTH [10]; dosage 5 g/ha) [%] | Post-emergence action against ABUTH in % (ABUTH [10]; dosage 20 g/ha) [%] | Pre-emergence action against MATIN in % (MATIN; dosage 80 g/ha) [%] | Pre-emergence action against AMARE in % (AMARE [11]; [13]) [%] | Pre-emergence action against AMARE in % (AMARE [11]; [14]) [%] | Post-emergence action against SETVI in % (SETVI [8]; dosage 5 g/ha) [%] | Pre-emergence action against MATIN in % (MATIN; dosage 20 g/ha) [%] | Post-emergence action against VIOTR in % (VIOTR [12]) [%] |
| --- | --- | --- | --- | --- | --- | --- | --- | --- | --- | --- | --- | --- | --- | --- | --- | --- | --- | --- | --- |
| COc1c(C(=O)Nc2nnc(C)o2)ccc(C(F)(F)F)c1C(=O)NC1CC1 [Example 6-45] | 90 | 100 | 80 | 90 | 90 | 90 | 90 | 100 | 80 | 100 | 90 | 80 | 90 | 90 | 80 | 100 | – | – | – |
| CCc1c(C(=O)Nc2nnc(C)o2)ccc(C(F)(F)F)c1C(=O)NC [Example 6-210] | 100 | 100 | 90 | 90 | 90 | 80 | 90 | 100 | 100 | 100 | 100 | – | 90 | 90 | – | 100 | 90 | 80 | 80 |
| COCCNC(=O)c1c(C(F)F)ccc(C(=O)Nc2nnc(C)o2)c1Cl [Example 6-262] | 100 | 100 | 90 | – | 90 | 80 | 90 | 100 | 90 | 80 | 100 | 80 | 90 | 100 | 90 | 100 | – | – | – |
